In the kinase profiling compilation of Christmann-Franck et al. (2016):

Molecular target: SGK1 (human) (UniProt O00141)
Assay: Flashplate

Chain of SGK1 (human) (O00141 whole entry, looked up): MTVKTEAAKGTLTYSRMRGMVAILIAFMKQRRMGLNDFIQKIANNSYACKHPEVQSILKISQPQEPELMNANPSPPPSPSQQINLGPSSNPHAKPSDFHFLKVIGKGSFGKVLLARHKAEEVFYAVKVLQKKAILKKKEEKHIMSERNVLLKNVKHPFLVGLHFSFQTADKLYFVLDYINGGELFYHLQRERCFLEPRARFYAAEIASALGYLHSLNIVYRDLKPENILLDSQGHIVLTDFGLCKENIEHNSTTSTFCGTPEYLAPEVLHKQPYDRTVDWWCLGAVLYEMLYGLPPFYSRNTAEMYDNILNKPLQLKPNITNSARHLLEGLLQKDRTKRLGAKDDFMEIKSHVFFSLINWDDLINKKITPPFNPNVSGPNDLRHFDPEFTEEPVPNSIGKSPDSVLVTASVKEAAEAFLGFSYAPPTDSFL

Ki	Structure (SMILES)
> 10 µM	CS(=O)(=O)Nc1cc2c(cc1Cl)NC(=O)Nc1cnc(C#N)c(n1)OCCCCCO2
2 µM	Cc1cccc(NC(=O)Nc2ccc(-c3coc4ncnc(N)c34)cc2)c1
> 10 µM	Cc1ccc(-c2nn(C(C)(C)C)c3ncnc(N)c23)cc1
1.58 µM	NC1CCCCC1Nc1nccc(-c2c[nH]c3ncccc23)n1 (centres undefined)
> 10 µM	Cc1cc(O)ccc1-n1cc(C(N)=O)c(=O)c2ccc(-c3ccncc3)cc21
> 10 µM	Fc1ccc(-c2nc(-c3ccc(F)cc3)c(-c3ccncc3)[nH]2)cc1
> 10 µM	COc1cc(Nc2ncnc3ccc(-c4ccc(CN5C[C@@H]6C(CO)[C@@H]6C5)cc4)cc23)ccc1Oc1ccccc1 (some centres undefined)
0.631 µM	CS(=O)(=O)Nc1ccc(-c2ccc3[nH]nc(N)c3c2)cc1
> 10 µM	COc1cc(-c2ccc3c(c2)Nc2ccc([N+](=O)[O-])cc2NC3=O)ccc1O
0.398 µM	NC(=O)c1cc2c(-c3ccc(Br)c(F)c3F)cncc2s1
> 10 µM	Cc1c(C=O)c(O)n2c(nc3ccccc32)c1C#N
5.01 µM	Cc1ccc(-c2ccc(NC(=O)Nc3cccc(Br)c3)cc2)c2c(N)n[nH]c12
> 10 µM	O=C(Nc1cnccn1)Nc1ccnc2c(F)cccc12
> 10 µM	O=c1[nH]sc2c1c(=O)c1cc(F)c(NCc3ccccc3)c(F)c1n2C1CC1
> 10 µM	CC(C)(CO)c1nnc2ccc(-c3c(-c4ccc(F)cc4F)nc4n3CCC4)nn12
> 10 µM	Cc1ccc(C(=O)Nc2ccon2)cc1Nc1ncnc2c1cnn2-c1ccccc1
> 10 µM	CCN(CC)CC#Cc1ccc2c(c1)-c1[nH]nc(-c3ccc(C#N)nc3)c1C2
0.501 µM	O=C(O)c1ccccc1Nc1ccnc(Nc2ccc3[nH]ncc3c2)n1
0.398 µM	Nc1n[nH]c2cccc(-c3ccc(NC(=O)Nc4cc(CO)ccc4F)cc3)c12

Second part, the molecule before the results:

Structure (SMILES)	Ki
CNC1CCN(c2nc3[nH]cc(C(=O)O)c(=O)c3c(C)c2Br)C1 (centres undefined)	> 10 µM
COc1ccc(OC)c(Nc2ccc3nnc(-c4ccccc4)n3n2)c1	> 10 µM
COCCOCC#Cc1cc(-c2n[nH]c3c2C(=O)c2cc(CN4CCN(C)CC4)ccc2-3)cs1	> 10 µM
C(=N\Nc1nc2ccccc2[nH]1)/c1c[nH]c2ccccc12	> 10 µM
CC(C)(C)c1cnc(CSc2cnc(NC(=O)C3CCNCC3)s2)o1	> 6.31 µM
OCCCNc1ncnc2[nH]cc(-c3ccccc3)c12	> 7.94 µM
Cn1c(NC[C@@H](N)Cc2ccccc2)nc(-c2ccncc2)c(-c2ccc3ccccc3c2)c1=O	> 7.94 µM
Cc1nsc2[nH]cc(C(=O)O)c(=O)c12	> 10 µM
c1ccc(Cc2cc(-c3ccc4[nH]ncc4c3)on2)cc1	1.58 µM
CNC(=O)c1ccccc1Sc1ccc2c(/C=C/c3ccccn3)n[nH]c2c1	> 10 µM
Nc1ncnc2scc(-c3ccc(NC(=O)Nc4cc(C(F)(F)F)ccc4F)cc3)c12	3.16 µM
C(=C\c1cncc(O[C@@H]2CCNC2)c1)/c1ccncc1	> 10 µM
O=C(Nc1n[nH]c2ccc(-c3cn(Cc4ccccc4)nn3)cc12)c1cccc(F)c1	0.1 µM
NC(=O)Cn1cc(-c2cc(-c3cc4ccccc4s3)c3[nH]ncc3c2)c2nc(N)ncc21	> 10 µM
NC(=O)c1cccc2c1Nc1nnc(Cl)cc1C(=O)N2	7.94 µM
N#Cc1ccc(-c2n[nH]c3c2Cc2ccc(OCCN4CCOCC4)cc2-3)cn1	> 10 µM
COc1cc(/C=C(\C#N)c2n[nH]c(N)c2C#N)ccc1O	> 10 µM
CC(=O)N(c1ccncc1)c1c(N[C@H](C)C(C)(C)C)c(=O)c1=O	> 10 µM
Cn1cc(-c2cnn3c(N)c(-c4ccc(NC(=O)Nc5cccc(C(F)(F)F)c5)cc4)cnc23)cn1	> 10 µM
CC(=O)Nc1cc(N)c(C#N)c(-c2ccsc2)n1	> 10 µM
O=C1CCCN1Cc1ccc2c(c1)[nH]c(=O)c1cccn12	> 10 µM
Cc1ccc(-c2cnc(N)c3c(-c4ccc(NC(=O)Nc5cccc(F)c5)cc4)csc23)cn1	> 10 µM
COc1cc(/C=C2\S/C(=N\c3ccccc3)NC2=O)ccc1O	5.01 µM
COc1cc2ncn(-c3cc(OCc4ccccc4C(F)(F)F)c(C(=O)O)s3)c2cc1OC	> 10 µM
COc1ccc(NC(=O)Nc2ccc(-c3csc4c(-c5cnn(CCO)c5)cnc(N)c34)cc2)cc1	> 10 µM
